“Also recorded” adds a separate entry of the source. Where a SMILES comes first, the peptide text is derived from it. The star is where a group is joined. Cbz = O=C(OCc1ccccc1)*; CH2F = FC*

In one data set the test system is Mo. Particulars: in vitro, prior study; cited from earlier work.
A further data set concerns PBMC. Briefly: PBMC cell death and apoptosis (Annexin V and PI) with caspase inhibitors. The format is cell-based, human. The conditions noted are these: 50 uM; control, SLE flare and SLE remission cultures; one day (FIG. 4B). Here is the method: (§1) In order to determine which caspase (or caspases) is responsible for downmodulation of PD-L1 during active lupus, the effects of specific caspase inhibitors on PD-L1 expression in human APC were tested (Table IV). Control and SLE PBMC were incubated for one day in the presence of the individual caspase inhibitors at doses ranging from 10 uM to 50 uM (R&D Systems), with the appropriate level of DMSO as the carrier control (0.5% final concentration). Treated cells were assayed for cell death and apoptosis using Annexin V and PI (example shown in FIG. 4), as well as stained for cell-surface expression of PD-L1 on APC.
The inhibitors enter living cells and bind irreversibly at the caspase active sites, preventing further proteolytic activity by the enzyme. After incubation with caspase inhibitors, PBMC were gated by forward and side scatter and analyzed for percent cell death and apoptosis using Annexin V and PI (see FIG. 10). […] However, higher doses of some caspase-specific inhibitors (50 uM), did alter PD-L1 levels, both in Mo and mDC (example shown in FIG. 11). Normal PBMC were incubated in medium with or without various caspase inhibitors, and PD-L1 protein levels assessed at day one. […]

Another data set deals with T lymphocytes. Kind of data set: Foxp3 expression in T lymphocytes of PBMC cultures treated with OPH. In kind it is cell-based, human. Particulars: 50 uM; healthy control and SLE cultures; three days later. How it is done: PBMC were cultured as above and a duplicate well of each sample treated with 50 uM OPH. PD-L1 upregulation on APC was confirmed in these cultures, and an aliquot of each sample was incubated further in order to allow interaction of APC with autologous T cells in culture. Three days later, the cells were fixed and permeabilized, and the T lymphocytes were assayed for intracellular expression of the regulatory T cell protein, Foxp3.

Another data set concerns PD-L2. Briefly: PD-L2 expression on APC with caspase inhibitors. In kind it is cell-based, human. The conditions noted are these: two healthy controls, through four days of culture (FIG. 5D). How it is done: (§2) PBMC were thawed, washed, and diluted to 1-2×10^6 cells/ml in culture medium consisting of RPMI 1640 with L-glutamine (CellGro), 10% heat-inactivated NB human serum (Valley Biomedical), 1% penicillin/streptomycin (CellGro), and 0.1% beta-mercaptoethanol. Cells were plated in round-bottom 96-well plates (Coming Costar) and incubated at 37° C. in a humidified cell chamber with 5% CO2. Some wells were treated with pan-/poly-caspase inhibitors at the time of plating: 50 uM Q- Val-Asp-(non-o-methylated)—OPh (OPH) or Z- Val-Ala-Asp-(beta-o-methyl)-fluroromethylketone (Z-VAD) (both from R&D Systems), or DMSO as the carrier control (0.5% final concentration).
(§3) At the timepoints indicated, cells were surface-stained using fluorochrome- or biotin-conjugated monoclonal antibodies: anti-CD1c, (Miltenyi), anti-CD3, anti-PD-L1 (eBioscience), anti-CD11b, anti-CD11c, anti-CD14, anti-CD-86, anti-PD-L2 (Pharmingen/BD Biosciences), anti-CD45RO, anti-CD80, anti-CD83, and/or anti-HLA-DR (BioLegend), with isotype-matched, fluorochrome/biotin-labeled irrelevant monoclonal antibodies as controls. All samples were blocked using 0.5% human serum and anti-FeR antibody (Miltenyi) during staining. […] Flow cytometry was performed using a FACSCalibur or LSR II cytometer (Becton Dickinson), and data were analyzed using FlowJo software (Macintosh Version 6.3).

Data set [1] deals with APC surface markers CD80/86. Briefly: Other APC surface markers (CD80/86 etc.) with caspase inhibitors. Particulars: PBMC from healthy controls, SLE flare, SLE remission (FIG. 5B). In kind it is cell-based, human. Here is the method: as §2, §3
The test system of the next data set is PD-L1 on APC. Briefly: PD-L1 surface expression on APC (Mo, mDC) of PBMC cultured with caspase inhibitors. In kind it is cell-based, human. How it is done:
as §1, §2
At the timepoints indicated, cells were surface-stained using fluorochrome- or biotin-conjugated monoclonal antibodies: anti-CD1c, (Miltenyi), anti-CD3, anti-PD-L1 (eBioscience), anti-CD11b, anti-CD11c, anti-CD14, anti-CD-86, anti-PD-L2 (Pharmingen/BD Biosciences), anti-CD45RO, anti-CD80, anti-CD83, and/or anti-HLA-DR (BioLegend), with isotype-matched, fluorochrome/biotin-labeled irrelevant monoclonal antibodies as controls. All samples were blocked using 0.5% human serum and anti-FeR antibody (Miltenyi) during staining. Cells were fixed using 2% paraformaldehyde in PBS after preliminary experiments indicated no effect of cell fixation on expression levels of PD-L1 and other surface markers. To assess apoptosis, some cultures were stained in parallel with Annexin V and propidium iodide (PI) (both from Becton Dickinson) as per the manufacturer's instructions. Flow cytometry was performed using a FACSCalibur or LSR II cytometer (Becton Dickinson), and data were analyzed using FlowJo software (Macintosh Version 6.3).

For a further data set, the system named is leukocytes. The conditions noted are these: cited from earlier work.
The next data set concerns human macrophages. The conditions noted are these: cited from earlier work.

As for `Sc1ncnc2nc[nH]c12` [6-mercaptopurine], in the data set with Mo, the “effect on markers of Mo differentiation and maturation” value is “no significant effect”.
As for `CC(C)[C@H](NC(=O)c1ccc2ccccc2n1)C(=O)N[C@@H](CC(=O)O)C(=O)COc1c(F)cccc1F` [OPH, Q- Val-Asp-(non-o-methylated)—OPh], in the data set on PBMC, the “apoptosis in PBMC” value is reported as “reduces”. Further, the “level of Foxp3 expression (Foxp3 MFI and number of CD4+ cells expressing Foxp3)” value with T lymphocytes is “remained unchanged”. The PD-L2 expression result in the data set with PD-L2 is on record as “not increased”. Moreover, the “other APC surface markers” value in data set [1] is on record as “does not increase”. In addition, the “PD-L1 expression on the surface of both Mo and mDC” value in the data set with PD-L1 on APC (50 uM, day one) is on record as “increased”. Also, in the data set with PD-L1 on APC (50 uM, controls, SLE flare, SLE remission (FIG. 4C)), the “PD-L1 expression in Mo compared to untreated” value is recorded as “significantly increases”. The “PD-L1 on APC from healthy controls” value in the data set with PD-L1 on APC (CD80/86+ APC, one day (FIG. 7)) is given as “upregulated PD-L 1 further; also recorded: increased”. In the data set with PD-L1 on APC (FIG. 5A), the “PD-L1 on PBMC” value is recorded as “increases” and the “number of CD14int among PD-L1+ PBMC” value is “increases”. In addition, in the data set with PD-L1 on APC (SLE flare, 50 uM, untreated 45%), the “mean percentage of Mo expressing PD-L1” value turned out to be 97%. Further, the “mean percentage of mDC expressing PD-L1” value with PD-L1 on APC (all three groups, 50 uM, P<0.013) was “more than doubled”. The “increase of PD-L1 expression in immature mDC” value in the data set on PD-L1 on APC (all three groups, 50 uM, p<0.02) is on record as “two- to three-fold”. The “PD-L1 levels in SLE flare APC” value in the data set on PD-L1 on APC (one day (FIG. 7)) is on record as “approached those of untreated control cells; also recorded: restored normal levels”.
Take `COC(=O)CC[C@H](NC(=O)[C@H](CC(=O)OC)NC(=O)OCc1ccccc1)C(=O)N[C@H](C(=O)N[C@@H](CC(=O)OC)C(=O)CF)C(C)C` [Z-DEVD-fmk]: the PD-L1 levels entry in the data set on PD-L1 on APC (normal PBMC, control mDC, day one (FIG. 11)) is listed as “greatly increased”.
With `COC(=O)C[C@H](NC(=O)[C@H](C)NC(=O)[C@@H](NC(=O)OCc1ccccc1)C(C)C)C(=O)CF` [Z-VAD, Z- Val-Ala-Asp-(beta-o-methyl)-fluroromethylketone] (Cbz-Val-Ala-Asp(OMe)-CH2F), the PD-L2 expression result with PD-L2 was “not increased”. The “reciprocal relationship between caspase activity and Mo PD-L1 expression” value in the data set on PD-L1 on APC (all PBMC treated) is on record as “held true”.
Take `CCN(CC)CCCC(C)Nc1ccnc2cc(Cl)ccc12` (stereo not drawn) [chloroquine]: in the data set on Mo, the “effect on markers of Mo differentiation and maturation” value is recorded as “no significant effect”.
Regarding `CN(C)CCCN1c2ccccc2Sc2ccc(Cl)cc21` [chlorpromazine], the “caspase activation and apoptosis in leukocytes” value with leukocytes was “activate caspases and trigger apoptosis”.
On to `COc1c(C)c2c(c(O)c1C/C=C(\C)CCC(=O)OCCN1CCOCC1)C(=O)OC2` [mycophenolate mofetil], for which the “effect on markers of Mo differentiation and maturation” value with Mo is “no significant effect”.
As to “Infliximab: can cause a lupus-like syndrome in susceptible individuals”, the “caspase activation and apoptosis in human macrophages” value with human macrophages was “promote caspase activation and apoptosis”.

These data come from US11860161B2, “Detection and treatment of autoimmune disorders” (Seattle Children's Hospital, priority 2007, dated 2024).
